Data reported in ChEMBL document CHEMBL1817541, “Synthesis and Evaluation of the α-D-/α-L-Rhamnosyl and Amicetosyl Digitoxigenin Oligomers as Anti-tumor Agents” (ACS Med Chem Lett, 2011).

Columns and labels:
Type in all cases: functional
NCI-H460 [1] = experiment: Cytotoxicity against human NCI-H460 cell assessed as cell death at 10 nM after 12 hrs by Hoechst 33342/propidium iodide staining based fluorescence microscopy
NCI-H460 [2] = experiment: Cytotoxicity against human NCI-H460 cell assessed as cell death at 50 nM after 12 hrs by Hoechst 33342/propidium iodide staining based fluorescence microscopy
NCI-H460 [3] = experiment: Cytotoxicity against human NCI-H460 cell assessed as cell death at 100 nM after 12 hrs by Hoechst 33342/propidium iodide staining based fluorescence microscopy
NCI-H460 [4] = experiment: Cytotoxicity against human NCI-H460 cell assessed as cell death at 500 nM after 12 hrs by Hoechst 33342/propidium iodide staining based fluorescence microscopy
NCI-H460 [5] = experiment: Cytotoxicity against human NCI-H460 cell assessed as cell death at 1 uM after 12 hrs by Hoechst 33342/propidium iodide staining based fluorescence microscopy
NCI-H460 [6] = experiment: Cytotoxicity against human NCI-H460 cells in serum free medium assessed as cell death at 10 uM after 12 hrs by Hoechst 33342/propidium iodide staining based fluorescence microscopy
NCI-H460 [7] = experiment: Cytotoxicity against human NCI-H460 cell assessed as cell death at 100 uM after 12 hrs by Hoechst 33342/propidium iodide staining based fluorescence microscopy
NCI-H460 [8] = experiment: Cytotoxicity against human NCI-H460 cell assessed as cell death after 12 hrs by Hoechst 33342/propidium iodide staining based fluorescence microscopy; settings: NCI-H460, 12 h
NCI-H460 [9] = experiment: Induction of apoptosis in human NCI-H460 cells in at 50 nM after 12 hrs by Hoechst 33342/propidium iodide staining based fluorescence microscopy
MOLT-4 = experiment: Cytotoxicity against human MOLT4 cells after 48 hrs by sulforhodamine B assay; settings: MOLT-4, 48 h
RPMI-8226 = experiment: Cytotoxicity against human RPMI8226 cells after 48 hrs by sulforhodamine B assay; settings: RPMI-8226, 48 h
SR = experiment: Cytotoxicity against human SR cells after 48 hrs by sulforhodamine B assay
A549 = experiment: Cytotoxicity against human A549 cells after 48 hrs by sulforhodamine B assay; settings: A549, 48 h
EKVX = experiment: Cytotoxicity against human EKVX cells after 48 hrs by sulforhodamine B assay
HOP-62 = experiment: Cytotoxicity against human HOP62 cells after 48 hrs by sulforhodamine B assay; settings: HOP-62, 48 h
HOP-92 = experiment: Cytotoxicity against human HOP92 cells after 48 hrs by sulforhodamine B assay; settings: HOP-92, 48 h
NCI-H226 = experiment: Cytotoxicity against human NCI-H226 cells after 48 hrs by sulforhodamine B assay; settings: NCI-H226, 48 h
NCI-H322M = experiment: Cytotoxicity against human NCI-H322M cells after 48 hrs by sulforhodamine B assay
NCI-H460 [10] = experiment: Cytotoxicity against human NCI-H460 cells after 48 hrs by sulforhodamine B assay; settings: NCI-H460, 48 h
NCI-H522 = experiment: Cytotoxicity against human NCI-H522 cells after 48 hrs by sulforhodamine B assay; settings: NCI-H522, 48 h
COLO 205 = experiment: Cytotoxicity against human COLO205 cells after 48 hrs by sulforhodamine B assay; settings: COLO 205, 48 h
HCT-15 = experiment: Cytotoxicity against human HCT15 cells after 48 hrs by sulforhodamine B assay; settings: HCT-15, 48 h
HT-29 = experiment: Cytotoxicity against human HT-29 cells after 48 hrs by sulforhodamine B assay; settings: HT-29, 48 h
KM12 = experiment: Cytotoxicity against human KM12 cells after 48 hrs by sulforhodamine B assay; settings: KM12, 48 h
SW-620 = experiment: Cytotoxicity against human SW620 cells after 48 hrs by sulforhodamine B assay; settings: SW-620, 48 h
SF-268 = experiment: Cytotoxicity against human SF268 cells after 48 hrs by sulforhodamine B assay; settings: SF-268, 48 h
SF-295 = experiment: Cytotoxicity against human SF295 cells after 48 hrs by sulforhodamine B assay; settings: SF-295, 48 h
SF-539 = experiment: Cytotoxicity against human SF539 cells after 48 hrs by sulforhodamine B assay; settings: SF-539, 48 h
SNB-19 = experiment: Cytotoxicity against human SNB19 cells after 48 hrs by sulforhodamine B assay; settings: SNB-19, 48 h
SNB-75 = experiment: Cytotoxicity against human SNB75 cells after 48 hrs by sulforhodamine B assay; settings: SNB-75, 48 h
U-251 = experiment: Cytotoxicity against human U251 cells after 48 hrs by sulforhodamine B assay; settings: U-251, 48 h
PC-3 = experiment: Cytotoxicity against human PC3 cells after 48 hrs by sulforhodamine B assay; settings: PC-3, 48 h
DU-145 = experiment: Cytotoxicity against human DU145 cells after 48 hrs by sulforhodamine B assay; settings: DU-145, 48 h
LOX IMVI = experiment: Cytotoxicity against human LOXIMVI cells after 48 hrs by sulforhodamine B assay
Malme-3M = experiment: Cytotoxicity against human MALME-3M cells after 48 hrs by sulforhodamine B assay
M14 = experiment: Cytotoxicity against human M14 cells after 48 hrs by sulforhodamine B assay; settings: M14, 48 h
MDA-MB-435 = experiment: Cytotoxicity against human MDA-MB-435 cells after 48 hrs by sulforhodamine B assay; settings: MDA-MB-435, 48 h
SK-MEL-28 = experiment: Cytotoxicity against human SK-MEL-28 cells after 48 hrs by sulforhodamine B assay; settings: SK-MEL-28, 48 h
SK-MEL-5 = experiment: Cytotoxicity against human SK-MEL-5 cells after 48 hrs by sulforhodamine B assay; settings: SK-MEL-5, 48 h
UACC-257 = experiment: Cytotoxicity against human UACC257 cells after 48 hrs by sulforhodamine B assay; settings: UACC-257, 48 h
NCI-H23 = experiment: Cytotoxicity against human NCI-H23 cells after 48 hrs by sulforhodamine B assay; settings: NCI-H23, 48 h
UACC-62 = experiment: Cytotoxicity against human UACC62 cells after 48 hrs by sulforhodamine B assay; settings: UACC-62, 48 h
OVCAR-3 = experiment: Cytotoxicity against human OVCAR3 cells after 48 hrs by sulforhodamine B assay; settings: OVCAR-3, 48 h
OVCAR-4 = experiment: Cytotoxicity against human OVCAR4 cells after 48 hrs by sulforhodamine B assay; settings: OVCAR-4, 48 h
OVCAR-8 = experiment: Cytotoxicity against human OVCAR8 cells after 48 hrs by sulforhodamine B assay; settings: OVCAR-8, 48 h
SK-OV-3 = experiment: Cytotoxicity against human SKOV3 cells after 48 hrs by sulforhodamine B assay; settings: SK-OV-3, 48 h
786-0 = experiment: Cytotoxicity against human 786-0 cells after 48 hrs by sulforhodamine B assay; settings: 786-0, 48 h
A498 = experiment: Cytotoxicity against human A498 cells after 48 hrs by sulforhodamine B assay; settings: A498, 48 h
ACHN = experiment: Cytotoxicity against human ACHN cells after 48 hrs by sulforhodamine B assay
SN12C = experiment: Cytotoxicity against human SN12C cells after 48 hrs by sulforhodamine B assay
TK-10 = experiment: Cytotoxicity against human TK10 cells after 48 hrs by sulforhodamine B assay; settings: TK-10, 48 h
UO-31 = experiment: Cytotoxicity against human UO31 cells after 48 hrs by sulforhodamine B assay; settings: UO-31, 48 h
MCF7 = experiment: Cytotoxicity against human MCF7 cells after 48 hrs by sulforhodamine B assay; settings: MCF7, 48 h
MDA-MB-231 = experiment: Cytotoxicity against human MDA-MB-231 cells after 48 hrs by sulforhodamine B assay; settings: MDA-MB-231, 48 h
Hs-578T = experiment: Cytotoxicity against human Hs578T cells after 48 hrs by sulforhodamine B assay
T47D = experiment: Cytotoxicity against human T47D cells after 48 hrs by sulforhodamine B assay

`C[C@H]1O[C@H](O[C@H]2CC[C@@]3(C)[C@H](CC[C@@H]4[C@@H]3CC[C@]3(C)[C@@H](C5=CC(=O)OC5)CC[C@]43O)C2)CC[C@@H]1O` was tested, and the Activity (NCI-H460 [1]) was 16.63%, the Activity (NCI-H460 [2]) was 19.63% and the Activity (NCI-H460 [3]) was 24.88%. It also gave an Activity (NCI-H460 [4]) of 58.34%, an Activity (NCI-H460 [5]) of 89.05% and an Activity (NCI-H460 [6]) of 100%. The Activity (NCI-H460 [7]) was 100%, the IC50 (NCI-H460 [8]) was 387 nM and the Activity (NCI-H460 [9]) was 15.33%. The GI50 (MOLT-4) was 35.3 nM, the GI50 (RPMI-8226) was 117 nM and the GI50 (SR) was 79.5 nM. For the same compound, the GI50 (A549) was 30.6 nM, the GI50 (EKVX) was 62.1 nM and the GI50 (HOP-62) was 56.4 nM. For the same compound, the GI50 (HOP-92) was 128 nM, the GI50 (NCI-H226) was 168 nM and the GI50 (NCI-H322M) was 106 nM. It also gave a GI50 (NCI-H460 [10]) of 35.1 nM, a GI50 (NCI-H522) of 40.8 nM and a GI50 (COLO 205) of 348 nM. For the same compound, the GI50 (HCT-15) was 116 nM, the GI50 (HT-29) was 97 nM and the GI50 (KM12) was 228 nM. It also gave a GI50 (SW-620) of 52.6 nM, a GI50 (SF-268) of 37.8 nM and a GI50 (SF-295) of 71.6 nM. The GI50 (SF-539) was 43.8 nM, the GI50 (SNB-19) was 315 nM and the GI50 (SNB-75) was 99 nM. The GI50 (U-251) was 35.3 nM, the GI50 (PC-3) was 101 nM and the GI50 (DU-145) was 30.5 nM. It also gave a GI50 (LOX IMVI) of 60.6 nM, a GI50 (Malme-3M) of 182 nM and a GI50 (M14) of 156 nM. The GI50 (MDA-MB-435) was 115 nM, the GI50 (SK-MEL-28) was 186 nM and the GI50 (SK-MEL-5) was 37.1 nM. For the same compound, the GI50 (UACC-257) was 157 nM, the GI50 (NCI-H23) was 42.7 nM and the GI50 (UACC-62) was 168 nM. It also gave a GI50 (OVCAR-3) of 47.8 nM, a GI50 (OVCAR-4) of 191 nM and a GI50 (OVCAR-8) of 76.7 nM. It also gave a GI50 (SK-OV-3) of 194 nM, a GI50 (786-0) of 58.2 nM and a GI50 (A498) of 131 nM. For the same compound, the GI50 (ACHN) was 34.8 nM, the GI50 (SN12C) was 40.9 nM and the GI50 (TK-10) was 46.3 nM. The GI50 (UO-31) was 57 nM, the GI50 (MCF7) was 79.3 nM and the GI50 (MDA-MB-231) was 392 nM. It also gave a GI50 (Hs-578T) of 26.1 nM and a GI50 (T47D) of 409 nM.
With `C[C@@H]1O[C@@H](O[C@H]2CC[C@@]3(C)[C@H](CC[C@@H]4[C@@H]3CC[C@]3(C)[C@@H](C5=CC(=O)OC5)CC[C@]43O)C2)CC[C@H]1O` [RAMNODIGIN] the Activity (NCI-H460 [1]) was 15.1%, the Activity (NCI-H460 [2]) was 53.65% and the Activity (NCI-H460 [3]) was 87.28%. It also gave an Activity (NCI-H460 [4]) of 100%, an Activity (NCI-H460 [5]) of 100% and an Activity (NCI-H460 [6]) of 100%. It also gave an Activity (NCI-H460 [7]) of 100%, an IC50 (NCI-H460 [8]) of 48 nM and an Activity (NCI-H460 [9]) of 45.71%. For the same compound, the GI50 (MOLT-4) was 2.57 nM, the GI50 (RPMI-8226) was 23.5 nM and the GI50 (SR) was 2.25 nM. It also gave a GI50 (A549) of 1.56 nM, a GI50 (EKVX) of 5.13 nM and a GI50 (HOP-62) of 8.55 nM. For the same compound, the GI50 (HOP-92) was 11.3 nM, the GI50 (NCI-H226) was 19.3 nM and the GI50 (NCI-H322M) was 7.78 nM. For the same compound, the GI50 (NCI-H460 [10]) was 3.83 nM, the GI50 (NCI-H522) was 9.38 nM and the GI50 (COLO 205) was 29.6 nM. The GI50 (HCT-15) was 20.5 nM, the GI50 (HT-29) was 11.9 nM and the GI50 (KM12) was 32.4 nM. For the same compound, the GI50 (SW-620) was 11.1 nM, the GI50 (SF-268) was 4.28 nM and the GI50 (SF-295) was 10.4 nM. For the same compound, the GI50 (SF-539) was 7.8 nM, the GI50 (SNB-19) was 37.5 nM and the GI50 (SNB-75) was 14.9 nM. For the same compound, the GI50 (U-251) was 2.57 nM, the GI50 (PC-3) was 9.55 nM and the GI50 (DU-145) was 3.45 nM. The GI50 (LOX IMVI) was 11.8 nM, the GI50 (Malme-3M) was 18.3 nM and the GI50 (M14) was 19.3 nM. It also gave a GI50 (MDA-MB-435) of 27.7 nM, a GI50 (SK-MEL-28) of 23.1 nM and a GI50 (SK-MEL-5) of 5.44 nM. For the same compound, the GI50 (UACC-257) was 19.6 nM, the GI50 (NCI-H23) was 4.13 nM and the GI50 (UACC-62) was 12.7 nM. For the same compound, the GI50 (OVCAR-3) was 4.94 nM, the GI50 (OVCAR-4) was 18.9 nM and the GI50 (OVCAR-8) was 2.5 nM. It also gave a GI50 (SK-OV-3) of 22.2 nM, a GI50 (786-0) of 6.21 nM and a GI50 (A498) of 20.7 nM. For the same compound, the GI50 (ACHN) was 4.31 nM, the GI50 (SN12C) was 3.61 nM and the GI50 (TK-10) was 3.75 nM. For the same compound, the GI50 (UO-31) was 5.15 nM, the GI50 (MCF7) was 5.89 nM and the GI50 (MDA-MB-231) was 33.9 nM. It also gave a GI50 (Hs-578T) of 4.57 nM and a GI50 (T47D) of 21 nM.
